The term Ki denotes the dissociation constant of the complex between target and ligand, obtained from inhibition or displacement.

Data on 35 compounds can be found in patent publication US7851474B2, “Dipiperazinyl ketones and related analogues” (Neurogen Corporation, priority 2005, dated 2010).

The experiment concerns the target T1, chimeric human H3 receptor (Homo sapiens, UniProt Q9Y5N1, E19D).
T1 construct: made in house; host or cells: Sf9 insect cells (baculovirus infection); P2 membrane preparation
The experiment can be described thus: Chimeric human H3 receptor GTP binding assay (agonist-stimulated GTP-gamma35S binding, Example 7). The conditions noted are these: read-out: Ki. Format: biochemical. Summed up: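 Sf9 membranes co-expressing the chimeric receptor and heterotrimeric G-protein subunits, 35 μg protein per tube, in pH 7.4 Tris buffer with 10 μM GDP. Test compounds at 10^−10 to 10^−6 M with 1 μM histamine, 60 min at room temperature. Filter-bound GTP-gamma^35S read by scintillation; IC50 from non-linear regression of dose-response curves.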

[1] abbreviates: Table II, assay of Example 7, "*" in Ki.
The mark [2] stands for this setting: Table II "Ki", symbol "*": Ki in the assay of Example 7.
Where [3] appears, read: assay of Example 7, "*" in Ki of Table II.
The mark [4] stands for this setting: Table II, "*" in Ki, assay of Example 7.
[5] abbreviates: assay of Example 7, symbol * in column headed Ki of Table II.

The structures appear in SMILES notation. Where two headings read alike, the source gives them in different places.

T1 sequence (Q9Y5N1 with tags, fused parts or gaps E19D): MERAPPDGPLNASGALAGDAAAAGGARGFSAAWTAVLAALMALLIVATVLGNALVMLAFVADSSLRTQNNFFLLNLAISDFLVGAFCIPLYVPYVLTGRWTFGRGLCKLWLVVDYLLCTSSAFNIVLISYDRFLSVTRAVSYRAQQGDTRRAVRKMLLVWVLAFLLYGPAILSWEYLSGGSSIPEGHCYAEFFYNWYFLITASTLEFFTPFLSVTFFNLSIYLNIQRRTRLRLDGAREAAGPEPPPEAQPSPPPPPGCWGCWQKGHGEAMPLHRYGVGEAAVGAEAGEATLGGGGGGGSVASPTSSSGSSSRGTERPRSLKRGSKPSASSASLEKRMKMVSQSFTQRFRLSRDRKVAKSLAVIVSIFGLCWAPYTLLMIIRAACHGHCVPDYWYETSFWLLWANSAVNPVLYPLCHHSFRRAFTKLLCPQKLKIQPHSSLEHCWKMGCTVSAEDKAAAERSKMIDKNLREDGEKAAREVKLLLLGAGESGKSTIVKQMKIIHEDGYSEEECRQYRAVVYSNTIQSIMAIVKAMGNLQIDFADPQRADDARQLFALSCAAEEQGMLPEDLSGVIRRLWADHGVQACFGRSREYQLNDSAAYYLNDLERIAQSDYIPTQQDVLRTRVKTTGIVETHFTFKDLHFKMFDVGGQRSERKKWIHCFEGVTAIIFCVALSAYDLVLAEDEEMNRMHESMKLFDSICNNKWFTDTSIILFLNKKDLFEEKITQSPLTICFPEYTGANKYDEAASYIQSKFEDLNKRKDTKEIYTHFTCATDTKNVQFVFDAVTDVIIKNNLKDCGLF

As for `COc1ccc(-c2cnc(N3CCN(CC(=O)N4CCN(C5CCC5)CC4)CC3)cn2)c(C)c1` [Compound 950, 2-{4-[2-(4-cyclobutylpiperazin-1-yl)-2-oxoethyl]piperazin-1-yl}-5-(4-methoxy-2-methylphenyl)pyrazine], under setting [1], the Ki is less than 1000 nM.
With `O=C(CN1CCN(c2cnc(-c3ccncc3)cn2)CC1)N1CCN(C2CCC2)CC1` [Compound 917, 2-{4-[2-(4-cyclobutylpiperazin-1-yl)-2-oxoethyl]piperazin-1-yl}-5-pyridin-4-ylpyrazine], the Ki under setting [2] was less than 1000 nM.
For the compound `COCCN(C(=O)c1ccc(N2CCN(CC(=O)N3CCN(C4CCC4)CC3)CC2)cc1)C(C)C` [Compound 1130, 4-{4-[2-(4-cyclobutylpiperazin-1-yl)-2-oxoethyl]piperazin-1-yl}-N-isopropyl-N-(2-methoxyethyl)benzamide], the Ki under setting [1] was less than 1000 nM.
Take `CCCC(C)NC(=O)c1ccc(N2CCN(CC(=O)N3CCN(C4CCC4)CC3)CC2)cc1` (centres unmarked) [Compound 1142, 4-{4-[2-(4-cyclobutylpiperazin-1-yl)-2-oxoethyl]piperazin-1-yl}-N-(1-methylbutyl)benzamide]: under setting [3], the Ki is less than 1000 nM.
Turning to `O=C(CN1CCN(c2ccc(Cl)c(C(F)(F)F)c2)CC1)N1CCN(C2CCCC2)CC1` [Compound 466, 1-[4-chloro-3-(trifluoromethyl)phenyl]-4-[2-(4-cyclopentylpiperazin-1-yl)-2-oxoethyl]piperazine], under “"*" in Ki of Table II, assay of Example 7”, the Ki was less than 1000 nM.
For `CCC(C)CNC(=O)c1cccc(N2CCN(CC(=O)N3CCN(C4CCC4)CC3)CC2)c1` (centres unmarked) [Compound 1071, 3-{4-[2-(4-cyclobutylpiperazin-1-yl)-2-oxoethyl]piperazin-1-yl}-N-(2-methylbutyl)benzamide], the Ki under setting [1] is less than 1000 nM.
Take `O=C(CN1CCN(c2cc(Cl)cc(Cl)c2)CC1)N1CCN(C2CCCC2)CC1` [Compound 838, 1-cyclopentyl-4-{[4-(3,5-dichlorophenyl)piperazin-1-yl]acetyl}piperazine]: under setting [2], the Ki was less than 1000 nM.
Take `CCC1CCCCN1C(=O)c1cccc(N2CCN(CC(=O)N3CCN(C4CCC4)CC3)CC2)c1` (centres unmarked) [Compound 638, 1-cyclobutyl-4-[(4-{3-[(2-ethylpiperidin-1-yl)carbonyl]phenyl}piperazin-1-yl)acetyl]piperazine]: the Ki under setting [4] was less than 1000 nM.
With `CCC(C)N1CCN(C(=O)CN2CCN(c3ccc(Cl)cc3)CC2)CC1` (centres unmarked) [Compound 879, 1-sec-butyl-4-{[4-(4-chlorophenyl)piperazin-1-yl]acetyl}piperazine], under setting [2], the Ki is less than 1000 nM.
Take `CCOc1cccc(C(=O)NC2CCN(CC(=O)N3CCN(C4CCC4)CC3)CC2)c1` [Compound 1213, N-{1-[2-(4-cyclobutylpiperazin-1-yl)-2-oxoethyl]piperidin-4-yl}-3-ethoxybenzamide]: under setting [3], the inhibitory constant (Ki) is less than 1000 nM.
For `CCCN(CCC)C1CCN(CC(=O)N2CCN(C3CCC3)CC2)CC1` [Compound 432, 1-[2-(4-cyclobutylpiperazin-1-yl)-2-oxoethyl]-N,N-dipropylpiperidin-4-amine], under setting [5], the Ki was less than 1000 nM.
Take `CC(C)CN1CCN(C(=O)CN2CCN(c3ccc4c(c3)CCC4=O)CC2)CC1` [Compound 1162, 5-{4-[2-(4-isobutylpiperazin-1-yl)-2-oxoethyl]piperazin-1-yl}indan-1-one]: under setting [3], the inhibition constant (Ki) is less than 1000 nM.
Regarding `COc1ccc(-c2cnc(N3CCN(CC(=O)N4CCN(C5CCC5)CC4)CC3)cn2)cc1` [Compound 944, 2-{4-[2-(4-cyclobutylpiperazin-1-yl)-2-oxoethyl]piperazin-1-yl}-5-(4-methoxyphenyl)pyrazine], the Ki under setting [1] was less than 1000 nM.
With `CC(O)c1ccc(N2CC3CC2CN3CC(=O)N2CCN(C3CCC3)CC2)cc1` (centres unmarked) [Compound 331, 1-(4-{5-[2-(4-cyclobutylpiperazin-1-yl)-2-oxoethyl]-2,5-diazabicyclo[2.2.1]hept-2-yl}phenyl)ethanol], the Ki under setting [5] was less than 1000 nM.
Same read-out and setting: with `CCC(C)N1CCN(C(=O)CN2CCN(c3ccc(C(C)=O)cc3)CC2)CC1` (centres unmarked) [Compound 330, 1-(4-{4-[2-(4-sec-butylpiperazin-1-yl)-2-oxoethyl]piperazin-1-yl}phenyl)ethanone] the figure was less than 1000 nM.
Regarding `Cc1cc(C)cc(-c2ccc(N3CCN(CC(=O)N4CCN(C5CCC5)CC4)CC3)nn2)c1` [Compound 1016, 3-{4-[2-(4-cyclobutylpiperazin-1-yl)-2-oxoethyl]piperazin-1-yl}-6-(3,5-dimethylphenyl) pyridazine], under setting [1], the Ki is less than 1000 nM.
With `O=C(CN1CCC(N2CCCC2)CC1)N1CCN(C2CCCCC2)CC1` [Compound 806, 1-cyclohexyl-4-[(4-pyrrolidin-1-ylpiperidin-1-yl)acetyl]piperazine], the Ki under setting [2] was less than 1000 nM.
Still for that read-out and setting: with `O=C(CN1CCN(c2ccc(F)c(C(F)(F)F)c2)CC1)N1CCN(C2CCCCC2)CC1` [Compound 804, 1-cyclohexyl-4-({4-[4-fluoro-3-(trifluoromethyl)phenyl]piperazin-1-yl}acetyl)piperazine] the figure was less than 1000 nM.
As to `COc1cc(Br)c(CC(=O)N2CCN(CC(=O)N3CCN(C4CCC4)CC3)CC2)cc1OC` [Compound 378, 1-[(2-bromo-4,5-dimethoxyphenyl)acetyl]-4-[2-(4-cyclobutylpiperazin-1-yl)-2-oxoethyl]piperazine], the inhibition constant Ki under setting [5] is less than 1000 nM.
Turning to `Cc1ccc(C(=O)NC2CCN(CC(=O)N3CCN(C4CCC4)CC3)CC2)cc1C` [Compound 1212, N-{1-[2-(4-cyclobutylpiperazin-1-yl)-2-oxoethyl]piperidin-4-yl}-3,4-dimethylbenzamide], the Ki under setting [3] was less than 1000 nM.
As to `O=C(CN1CCN(c2ccc(-c3ccc(OC(F)(F)F)cc3)cc2)CC1)N1CCN(C2CCC2)CC1` [Compound 604, 1-cyclobutyl-4-({4-[4′-(trifluoromethoxy)biphenyl-4-yl]piperazin-1-yl}acetyl)piperazine], the Ki under setting [4] is less than 1000 nM.
Turning to `COc1ccc(-c2ccc(-c3ccc(N4CCN(CC(=O)N5CCN(C6CCC6)CC5)CC4)nn3)cc2)cc1` [Compound 1026, 3-{4-[2-(4-cyclobutylpiperazin-1-yl)-2-oxoethyl]piperazin-1-yl}-6-(4′-methoxybiphenyl-4-yl)pyridazine], the Ki under setting [1] is less than 1000 nM.
Regarding `Cc1ccc(-c2cnc(N3CCN(CC(=O)N4CCN(C5CCC5)CC4)CC3)cn2)cc1C` [Compound 928, 2-{4-[2-(4-cyclobutylpiperazin-1-yl)-2-oxoethyl]piperazin-1-yl}-5-(3,4-dimethylphenyl)pyrazine], the Ki under setting [2] was less than 1000 nM.
Take `O=C(CN1CCN(c2cccc(C(=O)N3CC[C@H]4CCCC[C@@H]4C3)c2)CC1)N1CCN(C2CCC2)CC1` [Compound 252, (4aR,8aS)-2-(3-{4-[2-(4-cyclobutylpiperazin-1-yl)-2-oxoethyl]piperazin-1-yl}benzoyl) decahydroisoquinoline]: the Ki under setting [5] is less than 1000 nM.
`Cc1ccc(F)c(-c2cnc(N3CCN(CC(=O)N4CCN(C5CCC5)CC4)CC3)cn2)c1` [Compound 921, 2-{4-[2-(4-cyclobutylpiperazin-1-yl)-2-oxoethyl]piperazin-1-yl}-5-(2-fluoro-5-methylphenyl)pyrazine]: the Ki under setting [2] is less than 1000 nM.
For the compound `CC(C)(C)C(=O)c1ccc(N2CCN(CC(=O)N3CCN(C4CCCC4)CC3)CC2)cc1` [Compound 326, 1-(4-{4-[2-(4-cyclopentylpiperazin-1-yl)-2-oxoethyl]piperazin-1-yl}phenyl)-2,2-dimethylpropan-1-one], the Ki under setting [5] was less than 1000 nM.
As to `Cc1ccc(N2CCN(CC(=O)N3CCN(C4CCCC4)CC3)CC2)cc1C` [Compound 837, 1-cyclopentyl-4-{[4-(3,4-dimethylphenyl)piperazin-1-yl]acetyl}piperazine], the Ki under setting [2] was less than 1000 nM.
Regarding `O=C(NCC1CC1)c1ccc(N2CCN(CC(=O)N3CCN(C4CCC4)CC3)CC2)cc1` [Compound 1133, 4-{4-[2-(4-cyclobutylpiperazin-1-yl)-2-oxoethyl]piperazin-1-yl}-N-(cyclopropylmethyl) benzamide], the Ki under setting [1] was less than 1000 nM.
Consider `O=C(CN1CCN(c2ccc(F)cc2)CC1)N1CCN(C2CCC2)CC1` [Compound 775, 1-cyclobutyl-4-{[4-(4-fluorophenyl)piperazin-1-yl]acetyl}piperazine], for which the inhibition constant (Ki) under setting [2] is less than 1000 nM.
As to `COc1cccc(C(=O)NC2CCN(CC(=O)N3CCN(C4CCC4)CC3)C2)c1` (centres unmarked) [Compound 1236, N-{1-[2-(4-cyclobutylpiperazin-1-yl)-2-oxoethyl]pyrrolidin-3-yl}-3-methoxybenzamide], under setting [3], the Ki was less than 1000 nM.
Turning to `N#Cc1ccc(N2CCN(CC(=O)N3CCN(C4CCC4)CC3)CC2)cc1` [Compound 1121, 4-{1-[2-(4-cyclobutylpiperazin-1-yl)-2-oxoethyl]piperazin-1-yl}benzonitrile], under setting [1], the Ki is less than 1000 nM.
Consider `CCOC(=O)c1ccc(-c2ccc(N3CCN(CC(=O)N4CCN(C5CCC5)CC4)CC3)cc2)cc1` [Compound 1199, ethyl 4′-{4-[2-(4-cyclobutylpiperazin-1-yl)-2-oxoethyl]piperazin-1-yl}biphenyl-4-carboxylate], for which the Ki under setting [3] is less than 1000 nM.
As for `CSc1cccc(-c2ccc(N3CCN(CC(=O)N4CCN(C5CCC5)CC4)CC3)cc2)c1` [Compound 584, 1-cyclobutyl-4-({4-[3′-(methylthio)biphenyl-4-yl]piperazin-1-yl}acetyl)piperazine], the Ki under setting [4] is less than 1000 nM.
Regarding `O=C(CN1CCN(c2ccc(-c3ccncc3)cc2)CC1)N1CCN(C2CCC2)CC1` [Compound 791, 1-cyclobutyl-4-{[4-(4-pyridin-4-ylphenyl)piperazin-1-yl]acetyl}piperazine], the Ki under setting [2] was less than 1000 nM.
Still for that read-out and setting: with `Cc1cc(-c2cnc(N3CCN(CC(=O)N4CCN(C5CCC5)CC4)CC3)cn2)ccc1F` [Compound 923, 2-{4-[2-(4-cyclobutylpiperazin-1-yl)-2-oxoethyl]piperazin-1-yl}-5-(4-fluoro-3-methylphenyl)pyrazine] the figure was less than 1000 nM.
